Like-named read-outs stand apart in the source and are kept apart here.
Molecular target: T1, Breast cancer resistance protein (BCRP) (Rattus norvegicus, UniProt Q80W57)
T1 construct: from tissue; host or cells: living rat (blood-brain barrier, choroid plexus)
T1 sequence (Q80W57 1-657): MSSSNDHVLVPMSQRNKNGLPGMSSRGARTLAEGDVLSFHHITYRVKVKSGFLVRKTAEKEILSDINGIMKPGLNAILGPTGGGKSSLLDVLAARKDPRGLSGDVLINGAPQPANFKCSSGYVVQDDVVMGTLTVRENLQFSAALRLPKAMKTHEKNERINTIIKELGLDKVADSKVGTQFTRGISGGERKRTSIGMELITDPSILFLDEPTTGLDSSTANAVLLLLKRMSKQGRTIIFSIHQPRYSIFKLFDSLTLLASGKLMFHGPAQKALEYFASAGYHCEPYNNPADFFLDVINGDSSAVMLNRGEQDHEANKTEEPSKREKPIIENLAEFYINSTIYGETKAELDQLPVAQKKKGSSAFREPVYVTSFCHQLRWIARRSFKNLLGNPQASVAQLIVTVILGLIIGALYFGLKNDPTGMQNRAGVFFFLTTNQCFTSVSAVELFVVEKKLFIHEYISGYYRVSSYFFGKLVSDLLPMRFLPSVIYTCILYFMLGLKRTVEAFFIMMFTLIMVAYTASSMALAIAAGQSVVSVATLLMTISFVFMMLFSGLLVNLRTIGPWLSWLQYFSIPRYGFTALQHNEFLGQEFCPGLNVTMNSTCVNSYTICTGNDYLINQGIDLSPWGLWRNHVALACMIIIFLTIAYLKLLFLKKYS
Assay: In vivo microdialysis pharmacokinetics of LVFX with BCRP inhibitor Ko143
Conditions: intravenous, with Ko143 15 mg/kg i.p., Ko143 group, Ko143 15 mg/kg i.p. + LVFX 50 mg/kg; for MRT / AUC(0-inf) / Cmax / half-life / AUC(0-t): mean ± SD; for MRT / Tmax / AUC(0-inf) / Cmax / half-life: N=5; for AUC(0-t): N=5, read-out: AUC0–180 (converted)
Protocol: On the day of surgery, rats were anesthetized using inhaled isoflurane via a facemask. The rats were placed in a stereotaxic frame (Gene&I), and the body temperature was maintained with a homoeothermic blanket set at 37°C. A midline incision was made to expose the skull. According to the Paxinos and Watson atlas, two microdialysis intracerebral guide cannulae (Eicom Co.) were implanted into the hippocampus CA1 region (Hp‐CA1 coordinates: AP −4.16 mm; ML −2.2 mm; DV −2.9 mm) and lateral ventricle (LV coordinates: AP −1.4 mm; ML +2.2 mm; DV −3.4 mm). Fixed to the skull using a screw and dental cement. After 3 days of recovery, the rats were anesthetized with isoflurane again. An intravascular probe (TP‐100‐20; 20 mm, Eicom Co.) was implanted into the jugular vein toward the right atrium. After the blood microdialysis probe was positioned within the jugular vein, the pipeline was connected to perfuse with ACD solution (citric acid 3.5 mM; sodium citrate 7.5 mM; dextrose 13.6 mM) at a flow rate of […], and the Hamilton microinjection pump was used for continuous perfusion. After stopping isoflurane inhalation, the rats were allowed to wake up naturally on the homoeothermic blanket. The awake rats were placed in a device that allowed them to move freely. Animals were allowed to recover for an additional 24 h.
All microdialysate concentrations (C m) from the hippocampal ECF and lateral ventricle CSF were converted to the unbound drug concentration (C u) at the target site using the following formula: C u = C m/R dial.
A total of 32 rats were randomly divided into the following groups: • Control group, N = 12: vehicle solution + LVFX (50 mg/kg). • TAR group, N = 5: Tariquidar (8 mg/kg) + LVFX (50 mg/kg). • Ko143 group, N = 5: Ko143 (15 mg/kg) + LVFX (50 mg/kg). • MK571 group, N = 5: MK571 (20 mg/kg) + LVFX (50 mg/kg). • PRO group, N = 5: Probenecid (50 mg/kg) + LVFX (50 mg/kg).
Levofloxacin was freshly dissolved in isotonic saline and administered via tail vein injection. Thirty minutes before LVFX administration, the intervention drugs of each group were injected intraperitoneally. To reduce the possible effect of solvents on BBB or BCSFB permeability of LVFX, we prioritized water as the solvent. However, Tariquidar and Ko143 are insoluble in water, and a cosolvent must be used to prepare agents that animals can tolerate. According to the different physicochemical properties of these four inhibitors, the preparation of each transporter inhibitor solution in this experiment was as follows. • P‐glycoprotein (P‐gp) inhibitor Tariquidar[22]: Tariquidar was freshly dissolved in DMSO to 8 mg/ml and then diluted to 4 mg/ml with a solution containing 10% Tween‐80, 25% PEG300, and 65% sterile water. • Breast cancer resistance protein (BCRP) inhibitor Ko143[23]: Ko143 was freshly dissolved in DMSO to 15 mg/ml and then diluted to 7.5 mg/ml with a solution containing 10% Tween‐80, 25% PEG300, and 65% sterile water. • Multidrug resistance‐associated proteins (MRPs) inhibitor MK571[24]: MK571 sodium salt hydrate was dissolved in 1.25% (w/v) aq sodium hydrogen carbonate (NaHCO3) solution to obtain a concentration of 10 mg/ml. • Organic anion transporters (OATs) inhibitor probenecid[25]: Probenecid was dissolved in NaOH (pH = 9.0–9.2) alkalized physiological saline to obtain a concentration of 25 mg/ml.
The pipelines where the blood and brain probes were installed were perfused at the speed of 2 μl/min with ACD solution and ACSF, respectively. Two brain probes were inserted into guide cannulas of the target site and allowed to equilibrate for 1 h. Subsequently, the rats were treated according to their corresponding groups in the device where they could move freely. Microdialyses samples were collected every 15 min using a fraction collector (EFC‐96, Eicom Co.) for 3 h and stored at 4°C until analysis. Finally, rats were anesthetized and decapitated, and their brain was harvested.

[1] = CSF (lateral ventricle microdialysate, unbound), CSF
[2] = brain ECF (hippocampal microdialysate, unbound), 30 min before LVFX, brain ECF

- MRT (CSF (lateral ventricle microdialysate, unbound), 30 min before LVFX, CSF): 69.6 min
- Tmax [1]: 15 min
- AUC(0-inf) [1]: 4940 ng·h/mL
- Cmax [1]: 4260 ± 320 ng/mL
- half-life [1]: 41.8 ± 6.9 min
- AUC(0-t) [1]: 4650 ng·h/mL
- Tmax [2]: 15 min
- AUC(0-inf) [2]: 4650 ng·h/mL
- Cmax [2]: 3710 ± 250 ng/mL
- MRT [2]: 75.5 min
- half-life [2]: 44.4 ± 10.4 min
- AUC(0-t) [2]: 4280 ng·h/mL
- Tmax (30 min before LVFX, blood): 15 min
- AUC(0-inf) (30 min before LVFX, blood): 11900 ng·h/mL
- Cmax (30 min before LVFX, blood): 11000 ± 770 ng/mL
- MRT (30 min before LVFX, blood): 67.7 min
- half-life (30 min before LVFX, blood): 42.8 ± 7.7 min
- AUC(0-t) (30 min before LVFX, blood): 11100 ng·h/mL
Structure (SMILES): C[C@H]1COc2c(N3CCN(C)CC3)c(F)cc3c(=O)c(C(=O)O)cn1c23 [LVFX, Levofloxacin]

From publication PMC9804084, “Multiple drug transporters contribute to the brain transfer of levofloxacin” (CNS Neuroscience & Therapeutics, 2022)
